“Also recorded” adds a separate entry of the source.
How the values were obtained:
p210Bcr-Abl (e14a2) = test: Western blot of Bcr-Abl protein in 32Dp210/e14a2 cells after siRNA electroporation; assay type: cell-based, murine; settings: for Bcr-Abl protein levels: 32Dp210/e14a2 cells
Procedure: Protein assay: Western blot analysis was performed ˜24 h following the last siRNA -treatment or ˜96 hours following transfection with the pSUPER siRNA-expression vector as described (Goetz A W, et al., Cancer Res. 2001, 61:7635)
(§1) siRNA-transfection: siRNAs were transfected into the murine cell lines 32Dp210Bcr-Abl-e14a2, -e13a2, 32Dp190Bcr-Abl-e1a2 and the human leukemic cell line MEG-01 using electroporation. Cell density was adjusted to 2.5-5×10^6/ml in RPMI/10% FCS. 800 μl of this cell suspension were mixed with siRNA in a 4 mm electroporation cuvette. Cells were electroporated by means of an EasyJect electroporator (peqlab, Erlangen, Germany) using a single-pulse protocol (250 V, 1800 μF, 8.). This treatment was repeated in intervals of 24 hours as indicated.
(§2) In 32Dp210Bcr-Abl-e14a2, -e13a2 and 32Dp190Bcr-Abl-e1a2 inhibition of Bcr-Abl can be compensated by addition of exogenous growth factor to the medium. Therefor, recombinant murine IL-3, (1 ng/ml) was added to the growth medium during siRNA treatment of these cell lines. Following the last siRNA treatment cells were washed and factor deprived before starting the different examination procedures (Western blot/MTT).
We used three murine hematopoetic 32D cell lines expressing either p210Bcr-Abl (e14a2), p210Bcr-Abl (e13a2) or p190Bcr-Abl (e1a2) to study the effectiveness of siRNAs to silence each of these human Bcr-Abl fusion breakpoint variants. In addition, experiments were performed in human Ph+leukemia cells (K562, MEG-01). All siRNAs used were directed to breakpoints of the Bcr and Abl sequence of the respective Bcr-Abl mRNA. RNAi-efficiency was assayed via analysis of Bcr-Abl protein levels and by monitoring the biological effect using MTT viability assay.

32Dp210/e14a2 cells = test: MTT viability assay in 32Dp210/e14a2 cells after siRNA electroporation; assay type: cell-based, murine
Procedure: (§3) Survival Assay: Following the last siRNA treatment cells were seeded in 96 well plates and cultivated for another ˜48 hours. Cell survival was then measured by MTT assay as described (Van der Kuip H, et al., Blood. 2001, 98:1532)
as §1, §2

K562 cells = test: Viability/growth of K562 cells after lipofection with siRNA; assay type: cell-based, human
Procedure: as §3
For the transfection of siRNA molecules into the human K562 cells we used Lipofectamin™ 2000 (Invitrogen, Karlsruhe). 1.5 Mio. cells were plated in 1.5 ml RPMI/10% FCS w/o antibiotics into a 6 well plate. For each well 500 μl transfection solution was prepared, containing 8.4 μg siRNA and 21 μl Lipofectamin in OPTI-MEM I reduced serum medium (Gibco, Karlsruhe). The cells were incubated 5 hours with the transfection solution, then the medium was changed to RPMI/10% FCS complemented with Penicillin/Streptomycin. When treated several times, cells were counted ˜24 h following treatment, diluted to 1 Mio/ml and seeded again in a 6 well plate (1.5 ml cell suspension per well). Transfection was then repeated exactly as the day before.

Bcr-Abl (e14a2) = test: Western blot of Bcr-Abl protein in primary CD34 positive cells of CML patients (e14a2); assay type: cell-based, human; settings: two electroporations, compared to BAF8 or BAF16
Procedure: FIG. 4: CD34 positive cells isolated from 3 newly diagnosed and untreated Philadelphia chromosome-positive CML patients in chronic phase and positive for bcr-abl-e14a2 by Ficoll-Hypaque density gradient centrifugation and affinity column purification were treated with siRNAs BAF7 (e14a2 specific, Patient 1), BAF8 (mismatch control, Patient 1), BAF12 (e14a2 specific, Patient 2+3), and BAF16 (e13a2 specific, Patient 2+3). Cells were diluted to a density of 2.5×10^6 in 800 μl growth medium, mixed with 12.8 μl of a 50 μM solution of the respective siRNA in a 4-mm electroporation cuvette, and electroporated using a single pulse protocol (250V, 1800 μF). This treatment was repeated after 24 hours, the cells were washed, incubated for another 24 hours, and harvested for western blot analysis. […] Additionally, BAF12 treatment compromised Bcr-Abl activity.
CD34 positive cells were isolated from 3 newly diagnosed and untreated Philadelphia chromosome-positive CML patients in chronic phase. Informed consent was obtained by the patients prior to collection of cells. Mononuclear cells were harvested by Ficoll-Hypaque density gradient centrifugation (Seromed, Berlin, Germany). CD34 positive cells were isolated using a stem cell isolation kit and a MACS column (Miltenyi Biotech, Bergisch Gladbach, Germany) according to manufacturer's instructions. […]

M07p210/e14a2 cells = test: Induction of apoptosis by imatinib mesylate in M07p210/e14a2 cells; assay type: cell-based, human; settings: BAF7-treated

Sequence of p210Bcr-Abl (e14a2) (P11274+P00519 fused): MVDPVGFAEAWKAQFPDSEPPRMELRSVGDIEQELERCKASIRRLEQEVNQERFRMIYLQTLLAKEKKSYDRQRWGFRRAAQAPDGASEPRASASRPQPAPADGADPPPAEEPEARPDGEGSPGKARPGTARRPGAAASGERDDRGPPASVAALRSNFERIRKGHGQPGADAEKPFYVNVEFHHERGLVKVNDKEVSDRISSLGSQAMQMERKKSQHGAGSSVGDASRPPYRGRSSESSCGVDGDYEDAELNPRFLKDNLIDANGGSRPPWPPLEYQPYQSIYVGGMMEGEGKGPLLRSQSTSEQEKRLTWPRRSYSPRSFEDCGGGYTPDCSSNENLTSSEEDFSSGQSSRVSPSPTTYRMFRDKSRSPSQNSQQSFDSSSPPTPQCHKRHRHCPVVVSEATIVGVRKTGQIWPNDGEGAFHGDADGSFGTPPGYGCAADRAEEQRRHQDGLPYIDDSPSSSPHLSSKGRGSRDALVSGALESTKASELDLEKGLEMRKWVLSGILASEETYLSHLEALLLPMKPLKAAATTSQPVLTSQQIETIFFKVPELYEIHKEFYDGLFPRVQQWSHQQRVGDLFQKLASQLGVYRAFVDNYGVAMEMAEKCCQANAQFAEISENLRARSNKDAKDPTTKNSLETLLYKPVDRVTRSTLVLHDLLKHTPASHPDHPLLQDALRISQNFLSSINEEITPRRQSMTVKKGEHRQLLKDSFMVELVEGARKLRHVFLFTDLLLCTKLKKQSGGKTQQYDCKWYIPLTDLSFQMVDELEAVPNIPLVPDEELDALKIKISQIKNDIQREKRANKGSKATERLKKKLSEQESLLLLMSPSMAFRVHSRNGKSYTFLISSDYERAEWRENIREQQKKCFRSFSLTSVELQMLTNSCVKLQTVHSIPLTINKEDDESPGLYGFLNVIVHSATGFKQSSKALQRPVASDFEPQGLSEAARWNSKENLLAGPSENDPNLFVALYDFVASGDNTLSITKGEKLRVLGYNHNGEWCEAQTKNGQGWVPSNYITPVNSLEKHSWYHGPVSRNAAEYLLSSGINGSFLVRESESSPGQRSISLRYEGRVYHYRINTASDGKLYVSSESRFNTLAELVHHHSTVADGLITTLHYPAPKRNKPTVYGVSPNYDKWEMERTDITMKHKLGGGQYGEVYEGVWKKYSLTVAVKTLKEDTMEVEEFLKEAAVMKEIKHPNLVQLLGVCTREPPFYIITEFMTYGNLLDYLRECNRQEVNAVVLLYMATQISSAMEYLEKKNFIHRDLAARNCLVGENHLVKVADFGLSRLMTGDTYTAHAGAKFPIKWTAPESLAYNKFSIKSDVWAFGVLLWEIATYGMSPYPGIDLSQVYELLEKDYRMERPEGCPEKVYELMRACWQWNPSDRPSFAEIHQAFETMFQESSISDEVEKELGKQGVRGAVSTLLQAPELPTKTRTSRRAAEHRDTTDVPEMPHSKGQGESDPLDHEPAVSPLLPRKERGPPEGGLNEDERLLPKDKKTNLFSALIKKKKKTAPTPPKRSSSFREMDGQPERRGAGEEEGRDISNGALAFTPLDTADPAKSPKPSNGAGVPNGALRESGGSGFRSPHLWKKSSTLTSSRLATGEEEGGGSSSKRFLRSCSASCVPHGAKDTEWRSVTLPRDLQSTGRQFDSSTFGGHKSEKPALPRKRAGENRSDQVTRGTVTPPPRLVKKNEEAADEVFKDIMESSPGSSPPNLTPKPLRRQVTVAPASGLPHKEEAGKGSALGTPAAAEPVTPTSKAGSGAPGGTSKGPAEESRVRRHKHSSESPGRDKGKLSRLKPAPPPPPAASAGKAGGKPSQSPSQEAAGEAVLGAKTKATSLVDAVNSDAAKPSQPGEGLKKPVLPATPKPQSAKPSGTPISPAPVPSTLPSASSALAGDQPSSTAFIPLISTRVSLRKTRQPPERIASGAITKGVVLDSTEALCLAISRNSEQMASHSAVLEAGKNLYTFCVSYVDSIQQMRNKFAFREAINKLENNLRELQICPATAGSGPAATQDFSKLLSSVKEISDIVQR
Sequence of Bcr-Abl (e14a2) (P11274+P00519 fused): as above

BAF7: siRNA duplex, sense SEQ ID No. 1, antisense SEQ ID No. 23, specific for Bcr-Abl-e14a2 (sense CAGAGUUCAAAAGCCCUUCAG; antisense CUGAAGGGCUUUUGAACUCUGCU; listed as RNA, chemistry not given here)
Bcr-Abl protein levels (p210Bcr-Abl (e14a2); four consecutive treatments at intervals of 24 h): reduced the amount of Bcr-Abl protein to the detection limit; also recorded: almost complete disappearance of Bcr-Abl protein | Bcr-Abl protein levels (p210Bcr-Abl (e14a2); single siRNA treatment, Western blot): notable reduction; also recorded: significant reduction | recovery of Bcr-Abl protein levels (p210Bcr-Abl (e14a2); 32Dp210Bcr-Abl (e14a2) cells, after one single treatment): quickly recovered to pre-treatment levels | viability (32Dp210/e14a2 cells; four treatments): virtual loss of viability; also recorded: virtually complete loss of viability | viability relative to electroporation control cells (EPC, 100%) (32Dp210/e14a2 cells; single treatment, MTT): approximately 59% | viability relative to EPC (32Dp210/e14a2 cells; treated four times, MTT): ≤ 2.5% | growth (K562 cells; K562, 48 hours following one single treatment, lipofectamin 2000): only a minimal growth reduction | viability (K562 cells; K562, 48 hours following the third lipofection at intervals of 24 hours): 45% | Bcr-Abl protein levels (Bcr-Abl (e14a2)): significant reduction | induction of apoptosis by 0.05 μM imatinib mesylate in siRNA-treated cells (M07p210/e14a2 cells): significant induction of apoptosis

— patent US7994307B2, “RNAi modulation of the BCR-ABL fusion gene and uses thereof” (Alnylam Pharmaceuticals, Inc., priority 2004, dated 2011)
